According to patent US20240108634A1, “COMPOSITIONS AND METHODS FOR INHIBITING YAP” (The United States Government as represented by the …, priority 2021, published 2024):

Assays:
CTGF & Cyr61 expression = assay: Real time RT-PCR of YAP-target genes CTGF and Cyr61 in GBM cells; type: cell-based, human; conditions: LN229 and GBM39 cells, 18 h
Description: Levels of total YAP were determined via ELISA. […] Immunoprecipitates were immunoblotted for the indicated proteins. […] Cells were treated with the indicated concentrations of inhibitor for 18 h and mRNA extracted for real time RT-PCR analyses. Measurements were performed in quadruplicate and means and+S.D. are shown. […] Cells were treated with (+) or without (−) NSC682769 (100 nM, 18 h) and harvested and separated into cytoplasmic and nuclear cellular fractions. Cytoplasmic versus nuclear material was subsequently immunoblotted for the indicated proteins. […] Values in top right corner of panels correspond to the percentage of nuclear localized YAP. […]
Protein and mRNA analyses, immunoprecipitation, in vitro bead-coupled inhibitor binding assays and HPLC analyses. […] Antigen-antibody complexes were detected using appropriate horseradish peroxidase-conjugated secondary antibodies (GE Healthcare) and enhanced chemiluminescence (Amersham ECL Prime). […] For quantitative RT-PCR, extraction of RNA was performed using Trizol® (Life Technologies). Total RNA was then quantified and integrity assessed using an Agilent 2100 Bioanalyzer (Agilent Technology). […] SYBR® Green quantitative PCR (Millipore Sigma) was performed in triplicate in 96-well optical plates on an ABI Prism 7000 Sequence Detection System (Life Technologies) according to the manufacturer's instructions. […]

LN229 and GBM39 cells = assay: Boyden chamber migration towards vitronectin or fibronectin; type: cell-based, human; conditions: vitronectin or fibronectin versus BSA-coated chambers
Excerpt: Cells were layered in soft agar to evaluate anchorage-independent growth in the presence of the indicated concentrations of inhibitor and colonies counted following 14 days of growth. Representative crystal violet stained images are shown below. Data represent mean+S.D. of three independent experiments. […] Cells were placed in Boyden chambers and allowed to migrate towards BSA (white bars), vitronectin (light yellow bars), or fibronectin (dark yellow bars) (*, P<0.05; n=3). […] Representative crystal violet stained images are shown (200×). Data represent mean+S.D. of three independent experiments. […] Graphical data shown below represent mean+S.D. (late apoptosis; annexin V-positive, PI-positive) of three independent experiments.
Cell proliferation, clonogenic, migration, invasion and apoptosis assays. Cell proliferation was determined via Cell Titer-Glo® luminescent cell assays (Promega). Clonogenic assays were done by plating a total of 1,000 cells per well in 24-well plates in a total volume of 400 μL using a two-layered soft agar system as previously described (Masri J, et al. (2007) Cancer Res 67: 11712-11720). Cell migration assays were conducted using precoated modified Boyden chambers as previously described (Benavides-Serrato A, et al. (2017) PLoS One 12: e0176599). […]

COc1ccc(-c2cc(-c3ccccc3)nc3c2CC(=O)Nc2ccccc2-3)cc1OC [NSC682769]
CTGF and Cyr61 transcripts (CTGF & Cyr61 expression): downregulated
Cell migration (LN229 and GBM39 cells): inhibited the number of cells capable of migrating
